According to publication PMC8903829 (eLife, 2022):
Values joined by “and” are separate entries in the source; they are usually repeats but may differ in a detail not shown here. Identical values can stand only once. Like-named read-outs stand apart in the source and are kept apart here.

Columns and labels:
hNaV1.6 N984K = target: T1, hNaV1.6 N984K (Homo sapiens, UniProt Q9UQD0, N984K); test: Automated patch-clamp, patient-identified variant in Expi293F cells; assay type: cell-based; design: h1.6-N984K 145756, Mean: scale not given here
T1 construct: expression vector containing the full-length cDNA coding for specific human and mouse sodium channel α-subunit; expressed in transfected cells; host or cells: Expi293F (transient, tetracycline-induced, pcDNA4/TO)
Experimental: For studies of mutant channels, cDNA plasmids in pcDNA4/TO Mammalian Expression Vector were transiently transfected into Expi293F cells stably expressing human FHF2b and human SCN1B subunit (polyclonal) background using ExpiFectamine 293 Transfection Kits (Gibco,Thermo Fisher Scientific CAT #: A14524). Induction was achieved using Tetracycline (Sigma Aldrich). Transfected cells were used in automated patch-clamp experiments 24 hours postinduction.
Inorm(CPD)=(ICPD−Icontrol)/(ITTX−Icontrol).

hNaV1.6 = target: T2, hNaV1.6 (Homo sapiens, UniProt Q9UQD0); test: V0.5 assay (holding potential -62 mV); assay type: cell-based; settings: V0.5 assay -62 mV
T2 construct: expression vector containing the full-length cDNA coding for specific human and mouse sodium channel α-subunit; expressed in transfected cells

Scn8a^N1768D/+ mice = test: Modified 6 Hz psychomotor seizure assay; assay type: in vivo, mouse; settings: for SCN8a mouse 6Hz chronic, Fraction of animals seizing: day 7, 2 hr after 13th dose; for SCN8a mouse 6Hz acute, Fraction of animals seizing: 2 hr; for EC50: Scn8a^N1768D/+ 6 Hz model
Experimental: Phenytoin was formulated in physiologic saline and was administered intraperitoneally (i.p.) using a 25-gauge needle at a dose volume of 10 mL/kg. All compounds were administered 2 hr prior to electrical seizure induction for all seizure models employed in this study.
Scn8a^N1768D/+heterozygous mice were tested at 5 weeks of age (p35). The modified 6 Hz seizure assay in Scn8a^N1768D/+heterozygous mice was adapted from the traditional 6 Hz assay psychomotor seizure assay to provide a measure of in vivo on target (NaV1.6 mediated) efficacy ([Barton et al., 2001]). The modified assay used a low frequency (6 Hz) but long-duration stimulation (3 s) to induce seizures. […] An electroshock (6 Hz, 12 mA) was delivered for 3 s (at 0.3-ms pulse interval) by corneal electrodes (Electro Convulsive Therapy Unit 57,800 from Ugo Basile). Immediately prior to the electroshock, the animals’ eyes were anesthetized with a drop of Alcaine (0.5% proparacaine hydrochloride).
An animal was considered protected in the assay upon prevention of GTC with hindlimb extension and was then scored ‘0’. An animal displaying GTC with hindlimb extension was considered not protected and is then scored ‘1’. The experimenter scoring the seizure behavior was blinded to the treatment.

[1] = Bioanalytical assessment of plasma and brain concentrations after mouse DC-MES assay; assay type: in vivo; settings: WT mice; for concentration at 2 h: mouse, po
Experimental: Approximately 0.5 mL of blood was collected from each mouse at the end of the assay via cardiac puncture under deep anesthesia. The blood samples were collected in a syringe and transferred to tubes containing EDTA. Blood was stored at 4 °C until centrifuged within 30 min of collection. Plasma was harvested and placed on dry ice and stored in a freezer set to maintain a temperature of –70°C to –80°C until analysis. Brains were harvested immediately after blood collection and placed on dry ice prior to storage in a freezer set to maintain a temperature of –70°C to –80°C until analysis.
Extraction of plasma samples was carried out by protein precipitation using acetonitrile. Plasma samples (50 µL) were mixed with 50 µL of internal standard (IS) solution in water followed by addition of 10 µL of concentrated ortho-phosphoric acid and 200 µL of acetonitrile. Samples were vortexed for 30 seconds, centrifuged at 13,000 rpm for 20 min, decanted in to a 96-well plate, and further centrifuged at 4000 rpm for 20 min. The samples were analyzed by UHPLC-ESI-MS/MS as described below.
Prior to extraction, pre-weighed whole brains were homogenized in 1:1 acetonitrile/water (v/v) (4 mL per mouse brain) using an IKA T18 ULTRA-TURRAX Homogenizer at the setting of 4 for approximately 2 min. The homogenate was centrifuged at 13,000 rpm for 20 min and 50 µL of the supernatant were treated exactly as described above for plasma samples. […]
Samples were analyzed by UHPLC-ESI MS/MS using a TQ-5500 Sciex triple quadrupole mass spectrometer equipped with a Shimadzu Nexera UHPLC pump and auto-sampler system using an ACE C18 PFP, 2.50 × 50 mm, 1.7 µm particle size column and gradient elution consisting of solvent A (0.1% formic acid in water) and solvent B (0.1% formic acid in acetonitrile) starting at 20% B from 0 min to 0.4 min and then increased to 100% B from 0.4 min to 0.6 min. At 2.0 min, the mobile phase composition was switched back to […] for 1 min. The flow rate used throughout the experiment was […]. […] The UHPLC-ESI MS/MS system was controlled by Analyst 1.6.
Sample concentrations were determined using a linear calibration function, weighted 1 /X, generated by the regression of analyte to IS peak area ratios in the standard samples to their respective concentrations. Acceptance criteria for the analytical run required that the back calculated values of the standards and the QC samples fell within ±20% of their nominal values, except for the lowest standard or lower limit of quantitation (LLOQ), for which the acceptance criterion was ±25%. At least 6 out of 12 standard points had to show back-calculated values within ±20% of their nominal concentrations for the calibration to be accepted. At least three QC samples, one at each level, had to show back-calculated values within ±20% of their nominal concentrations for the whole sample batch to be valid.

[2] = 3 mg/kg PO every 12 hr, day 7, 2 h after 13th dose, 3 mg/kg
[3] = 5 mg/kg PO every 12 hr, day 7, 2 h after 13th dose, 5 mg/kg
[4] = 10 mg/kg PO single dose, 2 h, 10 mg/kg

T1 sequence (Q9UQD0 whole entry N984K): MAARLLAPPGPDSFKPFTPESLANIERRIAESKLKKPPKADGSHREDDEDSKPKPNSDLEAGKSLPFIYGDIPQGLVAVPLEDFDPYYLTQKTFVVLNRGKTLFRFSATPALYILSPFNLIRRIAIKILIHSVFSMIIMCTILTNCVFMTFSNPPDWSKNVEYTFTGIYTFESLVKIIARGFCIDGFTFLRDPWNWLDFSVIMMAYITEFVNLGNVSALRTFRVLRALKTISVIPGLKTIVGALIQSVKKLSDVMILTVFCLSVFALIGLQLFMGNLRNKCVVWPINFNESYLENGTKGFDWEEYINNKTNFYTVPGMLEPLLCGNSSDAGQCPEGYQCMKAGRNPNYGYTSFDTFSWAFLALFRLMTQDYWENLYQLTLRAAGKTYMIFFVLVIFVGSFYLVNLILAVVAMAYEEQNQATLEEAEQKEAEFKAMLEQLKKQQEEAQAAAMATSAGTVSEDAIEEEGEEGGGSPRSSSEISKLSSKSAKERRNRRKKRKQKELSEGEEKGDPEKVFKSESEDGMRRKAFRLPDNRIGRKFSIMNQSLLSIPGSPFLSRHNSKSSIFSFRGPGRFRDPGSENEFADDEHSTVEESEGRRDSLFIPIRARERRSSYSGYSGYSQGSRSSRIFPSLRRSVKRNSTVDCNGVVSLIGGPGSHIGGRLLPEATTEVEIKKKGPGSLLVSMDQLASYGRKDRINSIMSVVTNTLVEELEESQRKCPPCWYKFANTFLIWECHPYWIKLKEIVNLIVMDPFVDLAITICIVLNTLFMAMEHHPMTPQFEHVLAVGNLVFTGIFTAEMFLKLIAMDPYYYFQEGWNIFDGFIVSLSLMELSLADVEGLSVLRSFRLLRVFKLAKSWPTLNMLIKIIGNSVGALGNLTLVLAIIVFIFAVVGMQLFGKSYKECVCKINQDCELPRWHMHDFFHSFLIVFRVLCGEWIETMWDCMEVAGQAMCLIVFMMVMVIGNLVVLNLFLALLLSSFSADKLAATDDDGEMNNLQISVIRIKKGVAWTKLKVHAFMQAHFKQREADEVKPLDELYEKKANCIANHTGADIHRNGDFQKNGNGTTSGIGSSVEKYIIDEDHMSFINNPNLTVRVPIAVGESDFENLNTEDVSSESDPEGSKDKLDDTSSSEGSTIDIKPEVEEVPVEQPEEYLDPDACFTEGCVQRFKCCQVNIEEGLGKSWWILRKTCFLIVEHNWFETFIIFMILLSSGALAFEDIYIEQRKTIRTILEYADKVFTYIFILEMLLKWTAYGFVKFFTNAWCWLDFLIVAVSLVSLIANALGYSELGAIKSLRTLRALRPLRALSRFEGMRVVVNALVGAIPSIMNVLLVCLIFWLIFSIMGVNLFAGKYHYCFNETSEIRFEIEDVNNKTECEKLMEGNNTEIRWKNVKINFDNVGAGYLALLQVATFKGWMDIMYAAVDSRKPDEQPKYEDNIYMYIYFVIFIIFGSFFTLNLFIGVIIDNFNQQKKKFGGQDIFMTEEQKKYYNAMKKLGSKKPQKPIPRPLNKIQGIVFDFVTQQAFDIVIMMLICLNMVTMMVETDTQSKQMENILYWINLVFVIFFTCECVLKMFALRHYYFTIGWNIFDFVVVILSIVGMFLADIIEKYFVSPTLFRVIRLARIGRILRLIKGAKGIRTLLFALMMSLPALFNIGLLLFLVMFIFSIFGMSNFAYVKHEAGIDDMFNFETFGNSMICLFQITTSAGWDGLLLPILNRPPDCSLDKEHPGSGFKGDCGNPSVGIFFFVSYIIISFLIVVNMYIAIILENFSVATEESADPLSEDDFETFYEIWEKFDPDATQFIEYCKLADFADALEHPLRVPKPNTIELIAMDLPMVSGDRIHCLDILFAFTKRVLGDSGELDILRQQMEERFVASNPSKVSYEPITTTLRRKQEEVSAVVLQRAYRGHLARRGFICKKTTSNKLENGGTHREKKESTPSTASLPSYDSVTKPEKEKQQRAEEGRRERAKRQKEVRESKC
T2 sequence (Q9UQD0 whole entry): as the sequence (Q9UQD0 whole entry N984K) above, with K984N counted along it
T2 sequence (Q92913 1-192 isoform Q92913-2 partner): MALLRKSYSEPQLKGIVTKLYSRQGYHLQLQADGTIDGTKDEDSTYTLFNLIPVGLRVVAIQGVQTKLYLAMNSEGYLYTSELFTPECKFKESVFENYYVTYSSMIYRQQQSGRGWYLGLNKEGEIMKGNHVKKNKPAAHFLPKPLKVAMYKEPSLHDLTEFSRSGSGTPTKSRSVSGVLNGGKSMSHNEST

**Q.** What does the source list for Cc1cc(S(=O)(=O)Nc2cscn2)c(F)cc1N(C)[C@H]1CCN(Cc2ccccc2)C1 [NBI-921352]?
**A.** IC50 (hNaV1.6 N984K): 32 nM; h1.6-N984K 145756, Mean (hNaV1.6 N984K; -5 LogM): 0.94; h1.6-N984K 145756, Mean (hNaV1.6 N984K; -5.47716 LogM): 0.92; h1.6-N984K 145756, Mean (hNaV1.6 N984K; -5.95429 LogM): 0.89; h1.6-N984K 145756, Mean (hNaV1.6 N984K; -6.4318 LogM): 0.81; h1.6-N984K 145756, Mean (hNaV1.6 N984K; -6.91009 LogM): 0.66; h1.6-N984K 145756, Mean (hNaV1.6 N984K; -7.38722 LogM): 0.56; h1.6-N984K 145756, Mean (hNaV1.6 N984K; -7.85387 LogM): 0.33; h1.6-N984K 145756, Mean (hNaV1.6 N984K; -8.33 LogM): 0.09; Fraction of hNav1.6 current blocked, mean (hNaV1.6; 0.0046 µM): -0.01128; Fraction of hNav1.6 current blocked, mean (hNaV1.6; 0.0137 µM): 0.1547; Fraction of hNav1.6 current blocked, mean (hNaV1.6; 0.0412 µM): 0.4966; Fraction of hNav1.6 current blocked, mean (hNaV1.6; 0.123 µM): 0.6688; Fraction of hNav1.6 current blocked, mean (hNaV1.6; 0.37 µM): 0.8319; Fraction of hNav1.6 current blocked, mean (hNaV1.6; 1.11 µM): 0.9499; Fraction of hNav1.6 current blocked, mean (hNaV1.6; 3.33 µM): 0.9695; Fraction of hNav1.6 current blocked, mean (hNaV1.6; 10 µM): 0.9977; SCN8a mouse 6Hz chronic, Fraction of animals seizing (Scn8a^N1768D/+ mice; 2 mg/kg PO every 12 hr): 0.5; SCN8a mouse 6Hz acute, Fraction of animals seizing (Scn8a^N1768D/+ mice; 2 mg/kg PO single dose): 0.8; SCN8a mouse 6Hz acute, Fraction of animals seizing (Scn8a^N1768D/+ mice; 3 mg/kg PO single dose): 0.8; SCN8a mouse 6Hz chronic, Fraction of animals seizing (Scn8a^N1768D/+ mice; 6 mg/kg PO every 12 hr): 0.34 and 0.429 and 0.5; SCN8a mouse 6Hz acute, Fraction of animals seizing (Scn8a^N1768D/+ mice; 6 mg/kg PO single dose): 0.5 and 0.667 and 0.834 and 0.715; SCN8a mouse 6Hz acute, Fraction of animals seizing (Scn8a^N1768D/+ mice; 10 mg/kg PO single dose): 0.57 and 0.4; SCN8a mouse 6Hz acute, Fraction of animals seizing (Scn8a^N1768D/+ mice; 30 mg/kg PO single dose): 0.43 and 0.5 and 0.333 and 0.4; SCN8a mouse 6Hz acute, Fraction of animals seizing (Scn8a^N1768D/+ mice; 200 mg/kg PO single dose): 0; SCN8a mouse 6Hz acute, Fraction of animals seizing (Scn8a^N1768D/+ mice; 300 mg/kg PO single dose): 0; EC50 (Scn8a^N1768D/+ mice; Mus musculus, 2 hr post dose (oral; phenytoin i.p.), read-out: brain EC50): 64 nM; EC50 (Scn8a^N1768D/+ mice; Mus musculus, 2 hr post dose, read-out: plasma EC50): 37 nM; ED50 (Scn8a^N1768D/+ mice; Mus musculus, oral, 2 hr prior to stimulation, read-out: ED50, prevention of GTC with hindlimb extension): 15 mg/kg; Mean [Brain] [1, 2]: 0.01911 µM; Mean [Plasma] [1, 2]: 0.01423 µM; Mean [Plasma] ([1]; 3 mg/kg PO single dose, 2 h, 3 mg/kg): 0.01728 µM and 0.009122 µM; Mean [Brain] [1, 3]: 0.02064 µM; Mean [Plasma] [1, 3]: 0.03091 µM; Mean [Plasma] ([1]; 5 mg/kg PO single dose, 2 h, 5 mg/kg): 0.0212 µM; Mean [Brain] [1, 4]: 0.05777 µM and 0.08031 µM; Mean [Plasma] [1, 4]: 0.1016 µM and 0.1012 µM; concentration at 2 h ([1]; brain, 3 mg/kg, 3 mg/kg PO every 12 hr, day 7, 2 h after 13th dose, read-out: Mean [Brain]): 12.8 nM; concentration at 2 h ([1]; brain, 5 mg/kg, 5 mg/kg PO every 12 hr, day 7, 2 h after 13th dose, read-out: Mean [Brain]): 37.7 nM; concentration at 2 h ([1]; brain, 10 mg/kg, 10 mg/kg PO every 12 hr, day 7, 2 h after 13th dose, read-out: Mean [Brain]): 37.7 nM; concentration at 2 h ([1]; brain, 10 mg/kg, 10 mg/kg PO single dose, 2 h, read-out: Mean [Brain]): 51.9 nM; concentration at 2 h ([1]; brain, 100 mg/kg, 100 mg/kg PO single dose, 2 h, read-out: Mean [Brain]): 646 nM; concentration at 2 h ([1]; brain, 200 mg/kg, 200 mg/kg PO single dose, 2 h, read-out: Mean [Brain]): 3880 nM; concentration at 2 h ([1]; plasma, 3 mg/kg, 3 mg/kg PO every 12 hr, day 7, 2 h after 13th dose, read-out: Mean [Plasma]): 17.7 nM; concentration at 2 h ([1]; plasma, 3 mg/kg, 3 mg/kg PO single dose, 2 h, read-out: Mean [Plasma]): 11.2 nM; concentration at 2 h ([1]; plasma, 5 mg/kg, 5 mg/kg PO every 12 hr, day 7, 2 h after 13th dose, read-out: Mean [Plasma]): 43 nM; concentration at 2 h ([1]; plasma, 5 mg/kg, 5 mg/kg PO single dose, 2 h, read-out: Mean [Plasma]): 36.8 nM; concentration at 2 h ([1]; plasma, 10 mg/kg, 10 mg/kg PO every 12 hr, day 7, 2 h after 13th dose, read-out: Mean [Plasma]): 151 nM; concentration at 2 h ([1]; plasma, 10 mg/kg, 10 mg/kg PO single dose, 2 h, read-out: Mean [Plasma]): 94.2 nM; concentration at 2 h ([1]; plasma, 100 mg/kg, 100 mg/kg PO single dose, 2 h, read-out: Mean [Plasma]): 3330 nM; concentration at 2 h ([1]; plasma, 200 mg/kg, 200 mg/kg PO single dose, 2 h, read-out: Mean [Plasma]): 34700 nM
